Reference: publication PMC9344462 (Journal of Medicinal Chemistry, 2022)
Like-named read-outs stand apart in the source and are kept apart here.

Columns and labels:
Mtb H37Rv [1] = settings: previous results ref 8; cited from earlier work
Mtb H37Rv [2] = format: cell-based, Mycobacterium tuberculosis H37Rv
[3] = test system: THP-1-derived macrophages
[4] = target: PknG (kinase and rubredoxin domains) (Mycobacterium tuberculosis, UniProt P9WI73); test: Intrinsic tryptophan fluorescence quenching; format: binding
Sequence of PknG (kinase and rubredoxin domains) (P9WI73 74-405): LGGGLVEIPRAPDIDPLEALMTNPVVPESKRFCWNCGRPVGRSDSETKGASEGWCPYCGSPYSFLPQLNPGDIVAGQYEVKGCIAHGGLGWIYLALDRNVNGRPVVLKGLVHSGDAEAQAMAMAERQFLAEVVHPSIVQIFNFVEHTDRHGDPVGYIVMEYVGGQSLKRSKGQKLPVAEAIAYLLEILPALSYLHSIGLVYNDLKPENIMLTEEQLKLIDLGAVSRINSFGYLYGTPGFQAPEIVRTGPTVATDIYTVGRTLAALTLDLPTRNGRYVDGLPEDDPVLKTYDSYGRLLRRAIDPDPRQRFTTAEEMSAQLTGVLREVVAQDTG

In the case of `NC(=O)c1c(NC(=O)C2CC2)sc2c1CCCC2` [AX20017], the “inhibitory activity on intracellular survival of Mtb within macrophage cells” value (Mtb H37Rv [1]) is given as “very similar inhibitory activity”.

For `NC(=O)c1c(N)c(C(=O)c2ccc(F)cc2)n2ccccc12` [B1], the “Mtb H37Rv intracellular survival” value (Mtb H37Rv [2]) was “significant decrease” and the “effect on cell viability” value [3] was “none of the compounds showed adverse effects”.

In the case of `NC(=O)c1c(N)c(C(=O)c2cccs2)n2ccccc12` [B3], the Kd [4] is reported as 3.6 µM.

`NC(=O)c1c(N)c(C(=O)c2ccc(Cl)c(Cl)c2)n2ccccc12` [B4] gave a Kd [4] of 13 µM.

In the case of `CC(C)c1ccc(C(=O)c2c(N)c(C(N)=O)c3ccccn23)cc1` [T1], the “Mtb H37Rv intracellular survival” value (Mtb H37Rv [2]; 1 and 10 μM, 24 h and 48 h, […]) is reported as “significant decrease” and the “effect on cell viability” value ([3]; 10 μM, 3, 24 and 48 h) is reported as “none of the compounds showed adverse effects”.
